Test results published in patent publication US20240165241A1, “TARGETED DELIVERY OF DRUG MOLECULES WITH DRUG LIGANDS CONJUGATED TO RNA NANOPARTICLE MOTION ELEMENTS” (Ohio State Innovation Foundation, priority 2022, published 2024).

Experiments:
[1] = Water solubility of SN38 after conjugation to RNA (absorbance at 366 nm); format: physicochemical; conditions: absorbance at 366 nm versus concentration 12.5-800 μM
Method: Three solutions were prepared, RNA-SN38 in DEPC H2O, SN38 in DEPC H2O, and SN38 in DMSO. The absorbance at 366 nm of these three solutions with different concentrations (12.5-800 μM) were measured by NanoDrop 2000 Spectrophotometer (ThermoFisher). […] The picture of RNA-SN38 and SN38 in DEPC H2O at 800 μM were taken for comparison of clarity and turbidity.

KB cells = test: PI/Annexin V-FITC apoptosis assay; format: cell-based; conditions: 500 nM, 24 hr
Method: Cell apoptosis effect induced by RNA nanoparticles was evaluated using FITC Annexin V Apoptosis Detection Kit (BD Pharmingen) following manufacturer instructions. Briefly, 5×10^4 KB cells were seeded on a 24-well plate overnight. RNA nanoparticles and free MTX were added into 24-well plate at a final concentration of 500 nM. After a 24 hr incubation at 37° C. in a humidified 5% CO2 environment, cells were trypsinized to single cell suspension, washed with PBS buffer twice, and resuspended in 100 μL 1× Annexin V-FITC binding buffer. Following this 5 μL of Annexin V-FITC and 5 μL of PI were added into each sample and incubated at room temperature for 15 min. The samples were then transferred into flow tubes that contained 200 μL of 1× binding buffer for FACS analysis by FACS Calibur™ flow cytometer within 1 hr. Data were analyzed by FlowJo.

Row | Structure (SMILES) | solubility in water [1] | cells underwent apoptosis (KB cells)
1 | CCc1c2c(nc3ccc(O)cc13)-c1cc3c(c(=O)n1C2)COC(=O)[C@]3(O)CC [SN38, 7-Ethyl-10-hydroxycamptothecin] | poor water solubility | –
2 | CN(Cc1cnc2nc(N)nc(N)c2n1)c1ccc(C(=O)N[C@@H](CCC(=O)O)C(=O)O)cc1 [MTX, Methotrexate] | – | 69.4%
